Experimental data taken from US20050245452A1, “Pharmaceutical use of novispirins” (Novozymes A/S, priority 2004, published 2005).
Ends that are not written are not given here.

Tests used:
[1] = tested on: P. acnes (erythromycin resistant); assay: MIC on Propionebacterium acnes, erythromycin resistant strain; format: cell-based; conditions: clinically resistant to clindamycin and erythromycin
Experimental: (§1) Minimal Inhibitory Concentration (MIC) of Novispirin G10 (SEQ ID NO: 16) was evaluated against P. acnes. Two strains were tested—one of which is clinically resistant to clindamycin and erythromycin.

[2] = tested on: P. acnes (erythromycin sensitive); assay: MIC on Propionebacterium acnes, erythromycin sensitive strain; format: cell-based
Experimental: as §1

[3] = tested on: Staphylococcus aureus (ATCC 25923); assay: Staphylococcus aureus wound infection in pigs (wound chambers, 4 hour time course); format: in vivo, Göttinger minipigs; conditions: 100 micrograms/ml, 1 ml applied
Experimental: The bacterial strain, Staphylococcus aureus, used in the study was ATCC 25923. The amino acid sequence of Novispirin G10 is shown in SEQ ID NO: 16.
Novispirin G10 was diluted in 0.01% acetic acid containing 0.1% BSA with a final concentration of 1 mg (substrate)/ml (solution); 100 micrograms/ml; 10 micrograms/ml and 1 microgram/ml. The carrier control was 0.01% acetic acid containing 0.1% BSA. As a positive control was used Synthetic Protegrin 1 (Charité, Institut f. Biochemie d. Humboldt Universität Berlin) diluted in 0.01% acetic acid containing 0.1% BSA with a final concentration of 100 micrograms/ml.
The chambers are made of one piece of titanium, have a screw top cover (also made of titanium) and were built in teamwork with Cranio Construct Bochum. The chambers have a height of 14 mm, an inner diameter of 25 mm and an outer diameter of 32 mm without baseplate (with baseplate: 50 mm).
After providing permission to conduct experiments with vertebrates in compliance with German animal protection laws, Göttinger minipigs (Fa. Ellegaard, Dalmose, Denmark; female, 6 months old, 25-30 kg weight) were chosen to implant the chambers on. The pigs were kept at least 2 weeks in the stable, fed a standard porcine diet and housed at 20° C. to 30° C. in an atmosphere of approximately 65% humidity with a light cycle of 12 hours on and 12 hours off. The animals used for this study appeared, during the experiments, clinically healthy—rectal temperature and body weight remained normal over the observed period.
Before wounding the skin was surgically prepared, washed with soap and disinfected with Octenisept (S&M, Norderstedt, Germany) for five minutes. Twelve BO-Chambers were implanted on the pigs back and flank between the base of the scapula and the iliac crest. The wounds were spaced a minimum of 5 cm apart and were created in four rows parallel to the columna vertebralis, two rows on each side of the columna vertebrtalis. The exact size and shape of the wounds were ensured by a special custom-made “round-scalpel” (also built in teamwork with Cranio Construct Bochum), which has a diameter of 33 mm. Epidermal, dermal subcutaneous tissues were removed, possible bleedings stanched by bipolar diathermy. The chambers were placed with an additionally secant v-incision at positions 6 respectively 12 o'clock on the musculus thoracicus longus fascia and the muscle fascia of the external ripcage muscles. The incisions were sutured with 2/0 Monocryl followed by the closure of the chambers. Povidone-iodine salve (Betaisodonna-salve, Mundipharma, Austria) was smothered on the wound edges. The chambers were dressed with paraffin gauze (Jelonet, Smith & Nephew, Lohfelden, Germany) and sterile compresses. Dressings were changed every second day under sedation (as described above).
Bacterial Background of each chamber was measured every second day, to detect potential contamination. Only one contaminated chamber was detected. Seven days post operation ten chambers were inoculated with bacteria.
For bacteria progeny Staphylococcus aureus (ATCC 25923) was plated on LB-Agar plate and incubated at 37° C. for 18 hours. One colony was picked and transfered into 3 ml LB-Medium for over night culture at 37° C. at 300 rpm. Over night culture was diluted in 50 ml fresh LB-Medium and incubated for 2.5 hours at 37° C. at 200 rpm.
Bacteria were pelleted, 4000 rpm, 5 min, Mergafuge 1.0 R (Heraeus, Hanau, Germany), and resuspended in PBS. Amount of containg bacteria was detremined by OD600 nm-measurement and calculated as follows: Colony forming Unit/ml=OD600 nm×2.5×10^8 (bacteria)
To inoculate one chamber 5×10^8 were used.
The establishment of the infection was proven by the measurement of bacterial counts per chamber. All inoculated chambers were infected after two days. Chamber No. 2 keeps bacteria free.
At day four after infection the antimicrobial effect of the testing substrate was measured in a time course of 4 hours in duration. […]

| Molecule | Minimal Inhibitory Concentration (MIC) [1] | Minimal Inhibitory Concentration (MIC) [2] | Mean CFU per ml sample volume (chamber fluid) ([3]; 0 hours) [CFU/ml] | Mean CFU per ml sample volume (chamber fluid) ([3]; 1 hour) [CFU/ml] | Mean CFU per ml sample volume (chamber fluid) ([3]; 2 hours) [CFU/ml] | Mean CFU per ml sample volume (chamber fluid) ([3]; 3 hours) [CFU/ml] | Mean CFU per ml sample volume (chamber fluid) ([3]; 4 hours) [CFU/ml] |
| --- | --- | --- | --- | --- | --- | --- | --- |
| CC[C@H]1OC(=O)[C@H](C)[C@@H](O[C@H]2C[C@@](C)(OC)[C@@H](O)[C@H](C)O2)[C@H](C)[C@@H](O[C@@H]2O[C@H](C)C[C@H](N(C)C)[C@H]2O)[C@](C)(O)C[C@@H](C)C(=O)[C@H](C)[C@@H](O)[C@]1(C)O [Erythromycin] | 64 | 0.25 |  |  |  |  |  |
| Protegrin 1: Synthetic Protegrin 1 (Charité, Humboldt Universität Berlin), used as a positive control at 100 micrograms/ml (RGGRLCYCRRRFCVCVGR; ends and bridges not checked; cysteine pairing not given here; UniProt P32194 131-148, looked up) [reference compound] |  |  | 13200000 | 88667 | 12800 | 3525 | 129000 |
| CCC[C@@H]1C[C@@H](C(=O)N[C@@H]([C@H]2O[C@H](SC)[C@H](O)[C@@H](O)[C@H]2O)[C@H](C)Cl)N(C)C1 [Clindamycin] | 64 | 0.12 |  |  |  |  |  |
